Measured values: ChEMBL document CHEMBL1201862, “PubChem BioAssay data set” (2004)
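48-hour exposure; five concentrations; linearly interpolated endpoints. At the GI50, growth is halved.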 Calls of active or inactive are those of the source. Cut-off read from the data, not from the text of the source: active = GI50 up to about 1.1 µM and inactive = higher.

Legend:
Assay in all cases: DTP human tumour cell line panel, 48 h
RPMI-8226 = test system: RPMI-8226
OVCAR-3 = test system: OVCAR-3
U-251 = test system: U-251
SW-620 = test system: SW-620
A498 = test system: A498
RXF 393 = test system: RXF 393
HCT-116 = test system: HCT-116
SK-MEL-2 = test system: SK-MEL-2
SK-OV-3 = test system: SK-OV-3
K562 = test system: K562
OVCAR-5 = test system: OVCAR-5
NCI-H460 = test system: NCI-H460
SNB-19 = test system: SNB-19
UACC-62 = test system: UACC-62
M14 = test system: M14
HL-60 = test system: HL-60
SF-268 = test system: SF-268
UACC-257 = test system: UACC-257
A549 = test system: A549
CAKI-1 = test system: CAKI-1

Compound	GI50 (RPMI-8226)	GI50 (OVCAR-3)	GI50 (U-251)	GI50 (SW-620)	GI50 (A498)	GI50 (RXF 393)	GI50 (HCT-116)	GI50 (SK-MEL-2)	GI50 (SK-OV-3)	GI50 (K562)	GI50 (OVCAR-5)	GI50 (NCI-H460)	GI50 (SNB-19)	GI50 (UACC-62)	GI50 (M14)	GI50 (HL-60)	GI50 (SF-268)	GI50 (UACC-257)	GI50 (A549)	GI50 (CAKI-1)
Oc1cccc(-c2nc3ccccc3s2)c1	39.4 µM (inactive)	21.6 µM (inactive)	39.5 µM (inactive)	57.9 µM (inactive)	52.5 µM (inactive)	32.1 µM (inactive)	33 µM (inactive)	28.4 µM (inactive)	27.9 µM (inactive)	55.6 µM (inactive)	14.8 µM (inactive)	34 µM (inactive)	67.3 µM (inactive)	34.8 µM (inactive)	23.2 µM (inactive)	47.8 µM (inactive)	19.8 µM (inactive)	26.4 µM (inactive)	26.2 µM (inactive)	23.9 µM (inactive)
NN=C(S)Nc1cccc(Cl)c1	> 100 µM (inactive)	29.3 µM (inactive)	> 100 µM (inactive)	> 100 µM (inactive)	> 100 µM (inactive)	> 100 µM (inactive)	36.3 µM (inactive)	79.4 µM (inactive)	> 100 µM (inactive)	36.6 µM (inactive)	> 100 µM (inactive)	64.1 µM (inactive)	> 100 µM (inactive)	> 100 µM (inactive)	88.7 µM (inactive)	> 100 µM (inactive)	> 100 µM (inactive)	> 100 µM (inactive)	> 100 µM (inactive)	> 100 µM (inactive)
O=C(CCCN1CCC(C(O)c2ccc(F)cc2)CC1)c1ccc(F)cc1 (stereo not given)	66.5 µM (inactive)	57 µM (inactive)	55.5 µM (inactive)	61.8 µM (inactive)	49 µM (inactive)	41.1 µM (inactive)	57 µM (inactive)	57.4 µM (inactive)	69.8 µM (inactive)	39.7 µM (inactive)	58.2 µM (inactive)	57.8 µM (inactive)	60.7 µM (inactive)	57 µM (inactive)	51.6 µM (inactive)	35.9 µM (inactive)	59.6 µM (inactive)	60.7 µM (inactive)	64 µM (inactive)	53.7 µM (inactive)
N=C(N)NCC(N)C(=O)O (stereo not given)	> 100 µM (inactive)	> 100 µM (inactive)	> 100 µM (inactive)	> 100 µM (inactive)	> 100 µM (inactive)	> 100 µM (inactive)	> 100 µM (inactive)	> 100 µM (inactive)	> 100 µM (inactive)	> 100 µM (inactive)	> 100 µM (inactive)	> 100 µM (inactive)	> 100 µM (inactive)	> 100 µM (inactive)	> 100 µM (inactive)	> 100 µM (inactive)	> 100 µM (inactive)	> 100 µM (inactive)	> 100 µM (inactive)	> 100 µM (inactive)
Cc1ccc(C2(O)c3ccccc3C(=O)N(C)C2(O)c2ccc(C)cc2)cc1 (stereo not given)	> 100 µM (inactive)	> 100 µM (inactive)	17.4 µM (inactive)	34.5 µM (inactive)	> 100 µM (inactive)	32.3 µM (inactive)	49.2 µM (inactive)	> 100 µM (inactive)	> 100 µM (inactive)	28.4 µM (inactive)	> 100 µM (inactive)	22.6 µM (inactive)	21.5 µM (inactive)	> 100 µM (inactive)	62.7 µM (inactive)	16.1 µM (inactive)	21.2 µM (inactive)	> 100 µM (inactive)	> 100 µM (inactive)	68.1 µM (inactive)
COc1ccc2c(c1)OC[C@@H]1c3cc(O)c(OCc4ccccc4)cc3O[C@H]21	10.2 µM (inactive)	38 µM (inactive)	23.7 µM (inactive)	29.6 µM (inactive)	6.62 µM (inactive)	25.9 µM (inactive)	29.9 µM (inactive)	17.3 µM (inactive)	17.3 µM (inactive)	31.8 µM (inactive)	66.5 µM (inactive)	17.3 µM (inactive)	46.8 µM (inactive)	18.1 µM (inactive)	27.9 µM (inactive)	16.8 µM (inactive)	28.3 µM (inactive)	17.9 µM (inactive)	26.2 µM (inactive)	24.1 µM (inactive)
COc1ccc2nc3cc(Cl)ccc3c(NCCCCCC(=O)NC(COc3ccc4ccc5cccnc5c4n3)COc3ccc4ccc5cccnc5c4n3)c2c1	5.58 µM (inactive)	28.5 µM (inactive)	13.8 µM (inactive)	12 µM (inactive)	17.3 µM (inactive)	19.8 µM (inactive)	8.24 µM (inactive)	25.3 µM (inactive)	36.9 µM (inactive)	13.5 µM (inactive)	24.4 µM (inactive)	2.85 µM (inactive)	45.5 µM (inactive)	21.7 µM (inactive)	26.7 µM (inactive)	9.64 µM (inactive)	17.9 µM (inactive)	21.7 µM (inactive)	15.5 µM (inactive)	25.3 µM (inactive)
Cn1c(=O)c2[nH]c(/N=N/N3CCN(CCO)CC3)nc2n(C)c1=O	> 100 µM (inactive)	> 100 µM (inactive)	> 100 µM (inactive)	> 100 µM (inactive)	> 100 µM (inactive)	> 100 µM (inactive)	> 100 µM (inactive)	> 100 µM (inactive)	> 100 µM (inactive)	> 100 µM (inactive)	> 100 µM (inactive)	> 100 µM (inactive)	> 100 µM (inactive)	> 100 µM (inactive)	> 100 µM (inactive)	> 100 µM (inactive)	> 100 µM (inactive)	> 100 µM (inactive)	> 100 µM (inactive)	> 100 µM (inactive)
Clc1ccc(CCn2ccc3ccccc32)c(Cl)c1	> 100 µM (inactive)	> 100 µM (inactive)	> 100 µM (inactive)	> 100 µM (inactive)	> 100 µM (inactive)	> 100 µM (inactive)	> 100 µM (inactive)	> 100 µM (inactive)	> 100 µM (inactive)	> 100 µM (inactive)	> 100 µM (inactive)	> 100 µM (inactive)	> 100 µM (inactive)	> 100 µM (inactive)	> 100 µM (inactive)	> 100 µM (inactive)	> 100 µM (inactive)	> 100 µM (inactive)	> 100 µM (inactive)	> 100 µM (inactive)
COc1cccc(/C=C2/S/C(=N/Nc3nc(C)c(C(C)=O)s3)NC2=O)c1O	27 µM (inactive)	22.5 µM (inactive)	18.5 µM (inactive)	29.2 µM (inactive)	33.9 µM (inactive)	28.8 µM (inactive)	30.7 µM (inactive)	21.2 µM (inactive)	66.8 µM (inactive)	31.1 µM (inactive)	26.4 µM (inactive)	29.6 µM (inactive)	38 µM (inactive)	20.1 µM (inactive)	32.8 µM (inactive)	12.4 µM (inactive)	40.6 µM (inactive)	25.4 µM (inactive)	37.9 µM (inactive)	47.5 µM (inactive)
c1ccc(C2N3CCCCC3[C@@H]3c4[nH]c5ccccc5c4CCN23)cc1 (stereo not given in full)	36.2 µM (inactive)	> 100 µM (inactive)	> 100 µM (inactive)	50.4 µM (inactive)	27 µM (inactive)	47.3 µM (inactive)	64 µM (inactive)	> 100 µM (inactive)	> 100 µM (inactive)	41.4 µM (inactive)	> 100 µM (inactive)	48.8 µM (inactive)	> 100 µM (inactive)	48.3 µM (inactive)	> 100 µM (inactive)	22.1 µM (inactive)	> 100 µM (inactive)	> 100 µM (inactive)	> 100 µM (inactive)	> 100 µM (inactive)
CCCCCCCCCCC(C)CCCCCCC(=O)OCC(COP(=O)([O-])OCC[N+](C)(C)C)OC(=O)CCCCCCC(C)CCCCCCCCCC (stereo not given)	> 100 µM (inactive)	> 100 µM (inactive)	> 100 µM (inactive)	> 100 µM (inactive)	> 100 µM (inactive)	> 100 µM (inactive)	> 100 µM (inactive)	> 100 µM (inactive)	> 100 µM (inactive)	> 100 µM (inactive)	> 100 µM (inactive)	> 100 µM (inactive)	> 100 µM (inactive)	> 100 µM (inactive)	> 100 µM (inactive)	> 100 µM (inactive)	> 100 µM (inactive)	> 100 µM (inactive)	> 100 µM (inactive)	> 100 µM (inactive)
COc1ccc(Nc2nc(N)c(C(=O)c3c[nH]c4ccccc34)s2)cc1	0.998 µM (active)	0.745 µM (active)	1.58 µM (inactive)	1.65 µM (inactive)	2.05 µM (inactive)	2.03 µM (inactive)	0.92 µM (active)	3.98 µM (inactive)	4.51 µM (inactive)	0.397 µM (active)	3.13 µM (inactive)	0.942 µM (active)	2.82 µM (inactive)	5.79 µM (inactive)	1.23 µM (inactive)	1.07 µM (active)	6.84 µM (inactive)	7.85 µM (inactive)	1.41 µM (inactive)	2.18 µM (inactive)
O=C1c2ccccc2C(=O)c2[nH]c(=O)c(/C=N/Nc3ccc([N+](=O)[O-])cc3)nc21	> 37 µM (inactive)	2.92 µM (inactive)	7.24 µM (inactive)	12.1 µM (inactive)	4.67 µM (inactive)	6.04 µM (inactive)	19.8 µM (inactive)	3.86 µM (inactive)	9.73 µM (inactive)	> 43.6 µM (inactive)	31.6 µM (inactive)	2.06 µM (inactive)	15.9 µM (inactive)	2.09 µM (inactive)	2.01 µM (inactive)	8.79 µM (inactive)	8.59 µM (inactive)	2.15 µM (inactive)	3.52 µM (inactive)	17.3 µM (inactive)
